Test results: patent US6342498B1, “Arylpiperazines as serotonin reuptake inhibitors and 5-HT1Dα antagonists” (Eli Lilly and Company, priority 1997, dated 2002)
Structures can show the parent of a compound that is named as a salt.

melting point	Structure (SMILES)
131 to 133 °C	COc1ccccc1N1CCN(CCCCN2CC=C(c3c[nH]c4cc(Cl)ccc34)CC2)CC1
91 to 95 °C	COc1ccccc1N1CCN(CCNCCCN2CCC(c3c[nH]c4cc(Cl)ccc34)CC2)CC1 (as salt: hydrochloride) [Example 10, N-(2-(4-(2-methoxyphenyl)piperazin-1-yl)eth-1-yl)-N-3-(4-(6-chloroindol-3-yl)-piperidin-1-yl)prop-1-ylamine tetrahydrochloride]
113 to 115 °C	COc1ccccc1N1CCN(CCCCCN2CCC(c3c[nH]c4cc(F)ccc34)CC2)CC1 (as salt: hydrochloride) [Example 19, 1-(2-methoxyphenyl) -4-(5-(4-(6-fluoroindole-3-yl) -piperidin-1-yl)pent-1-yl)piperazine trihydrochloride]
139 to 141 °C	COc1ccccc1N1CCN(CCCCCN2CCC(c3c[nH]c4cc(Cl)ccc34)CC2)CC1 (as salt: hydrochloride) [Example 20, 1-(2-methoxyphenyl) -4-(5-(4-(6-chloroindole-3-yl) -piperidin-1-yl)pent-1-yl)piperazine trihydrochloride]
185 to 187 °C	COc1ccccc1N1CCN(CCCCCCN2CCC(c3c[nH]c4cc(Cl)ccc34)CC2)CC1 (as salt: hydrochloride) [Example 21, 1-(2-methoxyphenyl)-4-(6-(4-(6-chloroindol-3-yl)-piperidin-1-yl)hex-1-yl)piperazine trihydrochloride]
145 to 147 °C	COc1ccccc1N1CCN(CCCCCCN2CCC(c3c[nH]c4cc(F)ccc34)CC2)CC1 (as salt: hydrochloride) [Example 22, 1-(2-methoxyphenyl)-4-(6-(4-(6-fluoroindol-3-yl)-piperidin-1-yl)hex-1-yl)piperazine trihydrochloride]
175 to 177 °C	COc1ccccc1N1CCN(CCNC(=O)CCN2CC=C(c3c[nH]c4cc(F)ccc34)CC2)CC1 [Example 1, N-(2-(4-(2-methoxyphenyl)piperazin-1-yl)eth-1-yl)-3-(4-(6-fluoroindol-3-yl)-1,2,3,6-tetrahydropyridin-1-yl)propanamide]
181 to 183 °C	COc1ccccc1N1CCN(CCNC(=O)CCN2CC=C(c3c[nH]c4cc(Cl)ccc34)CC2)CC1 [Example 2, N-(2-(4-(2-methoxyphenyl)piperazin-1-yl)eth-1-yl)-3-(4-(6-chloroindol-3-yl)-1,2,3,6-tetrahydropyridin-1-yl)propanamide]
82 to 84 °C	COc1ccccc1N1CCN(CCNCCCN2CC=C(c3c[nH]c4cc(F)ccc34)CC2)CC1 [Example 6, N-(2-(4-(2-methoxyphenyl)piperazin-1-yl)eth-1-yl)-N3-(4-(6-fluoroindol-3-yl)-1,2,3,6-tetrahydropyridin-1-yl)prop-1-ylamine]
71 to 73 °C	COc1ccccc1N1CCN(CCNCCCN2CC=C(c3c[nH]c4cc(Cl)ccc34)CC2)CC1 [Example 7, N-(2-(4-(2-methoxyphenyl)piperazin-1-yl)eth-1-yl)-N-3-(4-(6-chloroindol-3-yl)-1,2,3,6-tetrahydropyridin-1-yl)prop-1-ylamine]
78 to 80 °C	COc1ccccc1N1CCN(CCNCCN2CC=C(c3c[nH]c4cc(Cl)ccc34)CC2)CC1 [Example 12, N-(2-(4-(2-methoxyphenyl)piperazin-1-yl)eth-1-yl), N-2-(4-(6-chloroindol-3-yl)-1,2,3,6-tetrahydropyridin-1-yl)eth-1-ylamine]
105 to 107 °C	COc1ccccc1N1CCN(CCCCCCN2CC=C(c3c[nH]c4cc(F)ccc34)CC2)CC1 [Example 14, 1-(2-methoxyphenyl)-4-(6-(4-(6-fluoroindole-3-yl)-1,2,3,6-tetrahydropyridin-1-yl)hex-1-yl)piperazine]
126 to 128 °C	COc1ccccc1N1CCN(CCCCCN2CC=C(c3c[nH]c4cc(Cl)ccc34)CC2)CC1 [Example 15, 1-(2-methoxyphenyl)-4-(5-(4-(6-chloroindole-3-yl)-1,2,3,6-tetrahydropyridin-1-yl)pent-1-yl)piperazine]
69 to 71 °C	COc1ccccc1N1CCN(CCCCCN2CC=C(c3c[nH]c4cc(F)ccc34)CC2)CC1 [Example 16, 1-(2-methoxyphenyl)-4-(5-(4-(6-fluoroindole-3-yl)-1,2,3,6-tetrahydropyridin-1-yl)pent-1-yl)piperazine]
